This is an account of results in BindingDB's records for doi:10.1007/s10822-022-00478-x (Roche Innovation Center Basel, F. Hoffmann-La Roche Ltd., 2022).

Structures are written as SMILES.

This test concerns the target cAMP and cAMP-inhibited cGMP 3',5'-cyclic phosphodiesterase 10A (Homo sapiens, UniProt Q9Y233). The experiment in a line: PDE10A assay. The method, boiled down: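 Human PDE10A (2 ng/well) preincubated 15 min RT with compound in HEPES pH 7.5, 10 mM MgCl2, BSA, then reacted 15 min with 50 nM [3H]cGMP/cGMP substrate. Stopped with Y-Si SPA beads; bound radioactivity counted, IC50 from four-parameter logistic, pIC50 = −log10(IC50).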
Regarding `Cn1ncc(C(=O)N2CCOCC2)c1C(=O)Nc1ccn2nc(-n3ccnc3)nc2c1` [Roche-Dataset for PDE10A, Compound 496], the half-inhibitory concentration (IC50) (usually the midpoint of a concentration-inhibition curve) stood at 104 nM. Then `CN(C)c1nc2ccc(NC(=O)c3c(C(=O)N4CCC4)cnn3C)cn2n1` [Roche-Dataset for PDE10A, Compound 652], with 8.76 nM. The value for `Cn1nc(-c2ccc3ccccc3n2)cc1NC(=O)c1nc(C2CC2)ccc1Nc1cncnc1` [US8470820, 40] was 0.08 nM. The value for `Cn1ncc(C(=O)N2CCC2)c1C(=O)N[C@@H]1CCn2cc(-c3ccccc3OC(F)(F)F)nc2C1` [Roche-Dataset for PDE10A, Compound 253] was 44 nM. For `Cc1cnc(C)n2nc(/C=C/c3ncnn3C)nc12` [Roche-Dataset for PDE10A, Compound 1142], the IC50 was 3910 nM.

Regarding `Cn1ncc2c1C(=O)N(c1ccn3nc(-c4cccc(F)c4)nc3c1)C2=O` [Roche-Dataset for PDE10A, Compound 217], half-maximal inhibition (IC50) was put at 51 nM.

The compound `Cn1cc(-c2ccccc2)nc1COc1nc2ccccc2nc1C(F)(F)F` [Roche-Dataset for PDE10A, Compound 644] returned a concentration for half-maximal inhibition (IC50) of 26 nM.

The compound `Cn1nc(-c2ccccn2)cc1NC(=O)c1c(Nc2cncnc2)cc[nH]c1=O` [Roche-Dataset for PDE10A, Compound 711] came in with a half-inhibitory concentration (IC50) of 18 nM. This IC50 and that of the compound before are within 1.5-fold of each other. The value for `CC(C)(O)CNC(=O)c1cccc(NC(=O)c2nc(C3CC3)cnc2Nc2cncnc2)n1` [Roche-Dataset for PDE10A, Compound 894] was 5.48 nM. In turn, `COc1c(C)cnc(CCc2ccc3ccccc3n2)c1C` [Roche-Dataset for PDE10A, Compound 701] returned an IC50 of 1480 nM. The value for `COc1c(C)cnc(CCc2nc(-c3ccccc3)cn2C)c1C` [Roche-Dataset for PDE10A, Compound 197] was 680 nM. Then `Cn1cc(-c2ccccc2)nc1CCNC(=O)c1cccn2c(C3CC3)nnc12` [Roche-Dataset for PDE10A, Compound 92], with 43 nM. Then `CCn1ccc(NC(=O)c2nc(C3CC3)ccc2Nc2cncnc2)n1` [Roche-Dataset for PDE10A, Compound 819], with 72 nM; and `COC(=O)c1cnn(C)c1C(=O)Nc1ccn2nc(-c3ccccc3)nc2c1` [Roche-Dataset for PDE10A, Compound 378], with 15 nM. Consider `COc1ncccc1C(=O)Nc1cc(-c2ccccn2)nn1C` [Roche-Dataset for PDE10A, Compound 921], for which the IC50 was found to be 9730 nM. This IC50 lies about 650-fold higher than the previous one. The value for `Cc1nnc2c(C(=O)NCCc3nc(-c4ccccc4)cn3C)cccn12` [Roche-Dataset for PDE10A, Compound 166] was 95 nM. Then `O=C(NC1CCCC1)c1nc(C2CC2)cnc1Nc1cncnc1` [Roche-Dataset for PDE10A, Compound 1041], with 965 nM. Then `Cn1ncc(C(=O)N2CCC2)c1C(=O)Nc1cc(-c2ccccc2Cl)nn1C1CCCC1` [Roche-Dataset for PDE10A, Compound 438], with 879 nM; and `O=C(NCC1CCC1)c1nc(C2CC2)cnc1Nc1cncnc1` [Roche-Dataset for PDE10A, Compound 1038], with 1590 nM. With `Cc1nc2c(C)c(C)c(CCc3nc(-c4ccccc4)cn3C)nn2c1C` [US10399985, Example 14], 2.4 nM corresponded to half-maximal inhibition (IC50). The value for `COCCn1nc(-c2ccccn2)cc1NC(=O)c1nc(C2CC2)ccc1Nc1cncnc1` [US8470820, 38] was 0.18 nM; that for `Cc1c(Cl)cc(C(F)(F)F)c2nc(CCc3nc(N4CCCC4)nn3C)nn12` [Roche-Dataset for PDE10A, Compound 157] was 1.1 nM; that for `O=C(NCc1ncco1)c1nc(C2CC2)cnc1Nc1cncnc1` [Roche-Dataset for PDE10A, Compound 1086] was 1030 nM.

As for `CC(C)n1nc(-c2ccccn2)cc1NC(=O)c1nc(C2CC2)ccc1Nc1cncnc1` [US8470820, 27], the IC50 is 2.55 nM. The value for `Cn1ncc(C(=O)N2CCOCC2)c1C(=O)Nc1ccc2nc(N3CCCC3)nn2c1` [Roche-Dataset for PDE10A, Compound 415] was 2.45 nM.

`CCn1nc(C)cc1C(=O)Nc1cc2nc(-c3ccccc3)[nH]c2cc1C(=O)NC` [Roche-Dataset for PDE10A, Compound 369] registered an IC50 of 22 nM. The value for `O=C1c2ccccc2C(=O)N1CCc1cnc(-c2ccccc2)[nH]1` [Roche-Dataset for PDE10A, Compound 299] was 503 nM. Then `COc1ccc2c(=O)n(C)c3c(C)nc(-c4cccc(Cl)c4)n3c2c1` [Roche-Dataset for PDE10A, Compound 981], with 71 nM. `O=C(NCCCc1noc(-c2ccccc2)n1)c1nc(C2CC2)cnc1Nc1cncnc1` [Roche-Dataset for PDE10A, Compound 181] showed a concentration for half-maximal inhibition (IC50) of 495 nM. Then `Cn1cc(-c2ccccc2)nc1CCc1cccc(-c2ccccn2)n1` [Roche-Dataset for PDE10A, Compound 237], with 2420 nM; and `Cn1cc(-c2ccccc2)nc1CCNC(=O)c1cccn2cnnc12` [Roche-Dataset for PDE10A, Compound 182], with 392 nM. Regarding `CCOC(=O)c1cnn(C)c1C(=O)Nc1ccn2nc(-c3cccc(F)c3)nc2c1` [Roche-Dataset for PDE10A, Compound 175], the IC50 worked out at 46 nM. Then `CC(C)(C)CC(C)(C)NC(=O)c1nc(C2CC2)cnc1Nc1cncnc1` [Roche-Dataset for PDE10A, Compound 976], with 826 nM.

In the case of `COCCOc1cc(Cl)c(C)n2nc(CCc3nc(N4CCCC4)nn3C)nc12` [Roche-Dataset for PDE10A, Compound 146], the IC50 worked out at 0.17 nM. Then `Cc1cnc(C)n2nc(CCc3nc(NCCCCl)nn3C)nc12` [Roche-Dataset for PDE10A, Compound 725], with 433 nM; and `CNC(=O)c1c(NC(=O)c2nc(Cl)c(OC)nc2Nc2cncnc2)cnn1C` [Roche-Dataset for PDE10A, Compound 1152], with 4550 nM; and `CN(C)C(=O)c1cnn(C)c1C(=O)Nc1ccc2[nH]c(-c3ccccc3)nc2c1` [Roche-Dataset for PDE10A, Compound 195], with 0.36 nM. Then `O=C(Nc1cccc(OCC(F)(F)F)c1)c1nc(C2CC2)cnc1Nc1cncnc1` [Roche-Dataset for PDE10A, Compound 694], with 16 nM; and `Cc1ncc(C)n2nc(CCc3nc(-c4cn[nH]c4)nn3C)nc12` [Roche-Dataset for PDE10A, Compound 961], with 87 nM; and `O=C(Nc1ccn2nc(-c3ccccc3)nc2c1)c1cnc(Cl)c(Cl)c1` [Roche-Dataset for PDE10A, Compound 518], with 1030 nM.

`Cn1ccc(NC(=O)c2c(C(=O)N3CCC3)cnn2C)n1` [Roche-Dataset for PDE10A, Compound 1137] returned an IC50 of 1430 nM. Then `CN(CCO)C(=O)c1cnn(C)c1C(=O)Nc1ccn2nc(N3CCOCC3)nc2c1` [Roche-Dataset for PDE10A, Compound 276], with 20 nM. The value for `Cn1ncc(C(=O)NCc2nc3ccccc3[nH]2)c1C(=O)Nc1ccn2cc(-c3ccccc3)nc2n1` [Roche-Dataset for PDE10A, Compound 1153] was 1520 nM; that for `Cc1c(Cl)cc(Cl)c2nc(CCc3cn4ccccc4n3)nn12` [Roche-Dataset for PDE10A, Compound 663] was 9.41 nM; that for `O=C(O)c1cccnc1C(=O)Nc1ccn2nc(-c3ccccc3)nc2c1` [Roche-Dataset for PDE10A, Compound 381] was 641 nM. Regarding `CCn1nc(C)cc1C(=O)Nc1cc2nc(-c3ccccc3)[nH]c2cc1C(=O)NCCOC` [Roche-Dataset for PDE10A, Compound 256], half-maximal inhibition (IC50) was put at 14 nM. Then `CN(C)c1nc(CCc2nccn2-c2ccccc2)nc2ccccc12` [Roche-Dataset for PDE10A, Compound 326], with 587 nM; and `COC[C@H]1CCCN1c1n[nH]c(CCc2nc3c(C)ncc(C)n3n2)n1` [Roche-Dataset for PDE10A, Compound 376], with 8.4 nM.

Regarding `Cn1cc(-c2ccccc2)nc1COc1cc(N2CCOCC2)nc(-c2ccn[nH]2)n1` [Roche-Dataset for PDE10A, Compound 108], inhibition was half-maximal at 371 nM (IC50).

Regarding `O=C(Nc1ccn(-c2ccncc2)n1)c1nc(C2CC2)ccc1Nc1cncnc1` [US8470820, 7], 9.7 nM corresponded to half-maximal inhibition (IC50).

Regarding `Cc1ncc(C)n2nc(/C=C/c3nc(N4CCC[C@@H]4C(F)(F)F)nn3C)nc12` [Roche-Dataset for PDE10A, Compound 782], the IC50 is 3.4 nM. The compound `CCN(C)C(=O)c1cnn(C)c1C(=O)Nc1ccn2cc(-c3cccc(O)c3)nc2n1` [Roche-Dataset for PDE10A, Compound 73] displayed an IC50 of 3.47 nM. Then `Cc1noc(C(F)(F)F)c1C(=O)Nc1ccn2nc(-c3ccccc3)nc2c1` [Roche-Dataset for PDE10A, Compound 478], with 9330 nM. Then `O=C(Nc1ccnnc1)c1nc(C2CC2)cnc1Nc1cncnc1` [Roche-Dataset for PDE10A, Compound 1083], with 288 nM. Then `Cn1ncc(C(=O)N2CCC2)c1C(=O)N[C@@H]1CCn2cc(-c3ccc(F)cc3)nc2C1` [Roche-Dataset for PDE10A, Compound 261], with 4.54 nM. `Cc1cnc(C)n2nc(CCc3nc(N4CCNC(=O)C4)nn3C)nc12` [Roche-Dataset for PDE10A, Compound 483] returned an IC50 of 848 nM. Then `COCCN(C)C(=O)c1cnn(C)c1C(=O)Nc1ccn2cc(-c3ccnc(F)c3)nc2n1` [Roche-Dataset for PDE10A, Compound 147], with 780 nM. The value for `CN(C)C(=O)Cn1ccc(NC(=O)c2nc(C3CC3)cnc2Nc2cncnc2)n1` [Roche-Dataset for PDE10A, Compound 882] was 32 nM; that for `Cn1ncc(C(=O)N2CCOCC2)c1C(=O)Nc1cn(-c2ccc3ccccc3n2)cn1` [Roche-Dataset for PDE10A, Compound 222] was 1.76 nM. Then `Cn1ncc(C(=O)N2CCC2)c1C(=O)Nc1ccc2sc(N3CCOCC3)nc2c1` [Roche-Dataset for PDE10A, Compound 397], with 1.86 nM.
